According to patent publication US20210315886A1, “IMIDAZOTETRAZINE COMPOUNDS” (The Board of Trustees of the University of Illinois, priority 2018, published 2021):
Entries after “also recorded” stand apart in the source; their conditions may differ. Like-named read-outs stand apart in the source and are kept apart here.

Tests used:
[1] = Mouse liver microsome stability assay; format: in vitro ADME; conditions: for stability to mouse liver microsomes: 2 hours
Procedure: Mouse Liver Microsome Stability Assay. A mixture of PBS (pH 7.4), NADPH regenerating system solution A (Corning Life Sciences), and NADPH regenerating system solution B (Corning Life Sciences) was incubated at 37° C. in a shaking incubator for 5 min. Next, compound was added in DMSO (final concentration 50 μM, 0.5% DMSO) before ice-cold mouse liver microsomes (Thermo Fisher, male CD-1 mice, pooled) were added (final protein concentration of 1 mg/mL). An aliquot was immediately removed, quenched with an equal volume of 100 μM internal standard and 0.5% hydrochloric acid in ice-cold acetonitrile, and centrifuged at 13,000 rcf for 3 min. The supernatant was diluted 1:5 in ddH2O and analyzed by LC-MS. The reactions were incubated at 37° C. in a shaking incubator for 2 h. A second aliquot was removed, quenched and diluted as before and analyzed by LC-MS. The ratio of the areas of analyte: internal standard at 2 hours was compared to the ratio at t0 to determine the percentage of compound remaining. Analysis was performed on an Agilent 6230 LC/MS TOF system with a 1.8 μm, 2.1×50 mm Agilent ZORBAX Eclipse Plus C18 column.

[2] = system: panel of human GBM cell lines; experiment: Anticancer activity against panel of human GBM cell lines; format: cell-based; conditions: for anticancer activity in cell culture: across all cell lines / in culture; for activity relative to TMZ in MGMT-deficient cell lines: MGMT-deficient U87 and D54 cell lines; for IC50: Homo sapiens
Procedure: Anticancer activity of C8 substituted imidazotetrazines. With a suite of imidazotetrazines in hand, each compound was evaluated against a panel of human GBM cell lines (Table 1a, Table 1b).

[3] = system: GBM Br23c oncospheres intracranially implanted; experiment: Intracranial mouse model of GBM (Br23c oncospheres); format: in vivo; conditions: for increase of median survival over TMZ: equimolar to 15 mg/kg TMZ, once-per-day, 5×/week for 7 weeks
From the text: FIG. 5. Evaluation of imidazotetrazines in intracranial mouse models of GBM. GBM Br23c oncospheres were intracranially implanted into female athymic nude mice. Treatment was started 5 days post implantation. […] Compounds were formulated in 10% PEG in PBS immediately prior to each treatment. Number of mice per treatment cohort ≥5. Survival curves were compared using log-rank test.
in vivo Efficacy Models. Human GBM Br23c stem-like neurosphere cells were intracranially implanted in female athymic nude mice (150,000 cells/mouse). […] Mice were observed daily for any signs of deterioration, neurotoxicity, or movement disorders. They were inspected for signs of pain and distress, as in accordance with the Johns Hopkins Animal Care and Use Guidelines.

T98G cells = experiment: Cytotoxicity in T98G cells with or without O6BG pre-treatment; format: cell-based, human
Procedure: FIG. 4. Imidazotetrazines were added to T98G cells with or without 3 h pre-treatment of O6BG (100 μM). IC50 values after 7-day incubation and fold changes between (+/−) O6BG treatments are reported. […] Error is SEM, n≥3. Statistical significance was determined by using a two-sample Student's t-test (two-tailed test, assuming equal variance).
After 8 hours of incubation with compound, the genomic DNA was isolated, quantified, and hydrolyzed to its constituent deoxyribonucleosides, which were quantitated via LC-MS/MS analysis. […] O6BG is a pseudosubstrate for MGMT that quenches cellular stores of the enzyme, leading to the persistence of O^6-methylguanine DNA adducts.

[4] = Hydrolytic stability in buffered saline (HPLC assay); format: physicochemical; conditions: aqueous solution, PBS at pH 7.4
From the text: Hydrolytic stability of C8 substituted imidazotetrazines.

[5] = Assessment of hematological toxicity; format: in vivo; conditions: mice, single IV dose 125 mg/kg, blood counts after 7 days
Procedure: Assessment of hematological toxicity. […] Both lymphocyte (FIG. 3b) and neutrophil (FIG. 8a) concentrations were decreased in TMZ-treated mice. […] Total WBC, lymphocyte, and neutrophil counts for mice treated with these compounds were equivalent to those of control mice.
Assessment of Hematological Toxicity. Male CD-1 IGS mice (n=4 mice/group) were administered a single dose of 125 mg/kg compound intravenously. Imidazotetrazines were formulated with SBEβCD in sterile water immediately prior to injection. Seven days post-treatment, mice were humanely sacrificed and whole blood was collected for assessment of total white blood cells, lymphocytes, neutrophils, platelets, and red blood cells.

U87 cells = experiment: Cell viability, Alamar Blue, 7 days, U87; format: cell-based; conditions: Homo sapiens, U-87 MG, 168 h, Table 1a, MGMT −
From the text: Cell Culture and Reagents.

[6] = cited from earlier work

Row | Compound | stability to mouse liver microsomes [1] | anticancer activity in cell culture [2] | Fold Change between (+/−) O6BG IC50 (T98G cells) | activity relative to TMZ in MGMT-deficient cell lines [2] | further results
1 | CNC(=O)c1ncn2c(=O)n(C)nnc12 [Compound 4, N,3-dimethyl-4-oxo-3,4-dihydroimidazo[5,1-d][1,2,3,5]tetrazine-8-carboxamide] | some susceptibility to the effects of the microsomes | retained activity in culture |  |  | increase of median survival over TMZ ([3]; oral): 24%
2 | CN(C)C(=O)c1ncn2c(=O)n(C)nnc12 [Compound 5, N,N,3-trimethyl-4-oxo-3,4-dihydroimidazo[5,1-d][1,2,3,5]tetrazine-8-carboxamide] | some susceptibility to the effects of the microsomes | retained activity in culture | 10 |  | increase of median survival over TMZ ([3]; oral): 46%
3 | CCCCN(CCCC)C(=O)c1ncn2c(=O)n(C)nnc12 [Compound 7, N,N-dibutyl-3-methyl-4-oxo-3,4-dihydroimidazo[5,1-d][1,2,3,5]tetrazine-8-carboxamide] | markedly less stability in liver microsomes |  |  |  | Stability (2 h, Microsomes) ([1]; 2 h, percentage remaining relative to t0): 1 ± 1%
4 | CCSC(=O)c1ncn2c(=O)n(C)nnc12 [Compound 10, S-ethyl 3-methyl-4-oxo-3,4-dihydroimidazo[5,1-d][1,2,3,5]tetrazine-8-carbothioate] |  |  |  | activity comparable to TMZ | 
5 | Cc1ncn2c(=O)n(C)nnc12 [Compound 14, 3,8-dimethylimidazo[5,1-d][1,2,3,5]tetrazin-4(3H)-one] |  | most active across all cell lines |  | as (or more) potent than TMZ | half-life [4]: > 20 h; effect on survival in intracranial model ([3]; oral, 15 mg/kg TMZ or equimolar dose, 15 mg/kg): lack of in vivo efficacy
6 | CC(=O)c1ncn2c(=O)n(C)nnc12 [Compound 17, 8-acetyl-3-methylimidazo[5,1-d][1,2,3,5]tetrazin-4(3H)-one] | generally stable to oxidative metabolism | retained activity in culture | 8 | effective against MGMT-deficient cell lines | myelosuppression / WBC toxicity ([5]; listed as K-TMZ, 125 mg/kg): did not produce myelosuppression; also recorded: significantly less in vivo toxicity to WBCs; potency compared to TMZ ([2]; in culture, despite shorter aqueous half-life): equipotent to TMZ; extension of median survival past TMZ-treated mice ([3]; oral gavage, 14.9 mg/kg once-per-day for 5 total doses): more than 50 days; IC50 (U87 cells): 44 ± 6 µM
7 | Cn1nnc2c(Cl)ncn2c1=O [Compound 19, 8-chloro-3-methylimidazo[5,1-d][1,2,3,5]tetrazin-4(3H)-one] | generally stable to oxidative metabolism | retained activity in culture |  | as (or more) potent than TMZ | 
8 | Cn1nnc2c(-c3ccccc3)ncn2c1=O [Compound 23, 3-methyl-8-phenylimidazo[5,1-d][1,2,3,5]tetrazin-4(3H)-one] |  | most active across all cell lines |  | as (or more) potent than TMZ | half-life [4]: > 20 h
9 | Cc1cnc(-c2ncn3c(=O)n(C)nnc23)o1 [Compound 27, 3-methyl-8-(5-methyloxazol-2-yl)imidazo[5,1-d][1,2,3,5]tetrazin-4(3H)-one] |  | retained activity in culture | 20 | as (or more) potent than TMZ | 
10 | Cn1nnc2c(C(N)=O)ncn2c1=O [TMZ, temozolomide, reference compound] | insensitive to metabolic perturbation |  |  |  | myelosuppression / WBC toxicity [5]: white blood cell (WBC) depletion; IC50 ([2]; GBM cell lines with negligible MGMT expression, read-out: IC50 in cell lines with negligible MGMT expression): ≤ 50 µM; IC50 ([2]; GBM cell lines with significant MGMT expression, read-out: IC50 in cell lines with significant MGMT expression): > 300 µM; incidence of myelotoxicity ([6]; TMZ-treated patients): ~20%; half-life ([6]; in vivo, in humans (b7: also in aqueous solutions in vitro)): ~2 h
